# According to patent US12043601B2, “N-substituted-1H-1,2,4-triazole-3-carboxamides, analogues thereof, and methods of treatment using same” (THE REGENTS OF THE UNIVERSITY OF COLORADO, priority 2018, dated 2024):
# Columns and labels:
# DksA = DksA (Salmonella typhimurium, UniProt P0A1G5); experiment: DksA-dependent livJ in vitro transcription; assay type: biochemical; conditions: livJ promoter; for IVT: concentration showing activity
# Protocol: To measure the potency of a compound in inhibition of DksA biological function, rpsMtranscripts in vitro was determined by non-radioactive in vitro transcription reactions with qPCR analysis with divergent compounds. Briefly, 5 nM pTIM-rpsMplasmid was mixed with […] of compounds in 10 μl reaction buffer (40 mM HEPES [pH 7.4], 2 mM MgCl2, 60 mM potassium glutamate, 0.05% NP-40, 200 μM ATP, 200 μM GTP, 200 μM CTP, 200 μM UTP, and 5 nM E. coli RNA polymerase holoenzyme (NEB, Ipswich, MA) with 5 μM DksA. The in vitro transcription was carried out at 37° C. for 10 min, and then terminated at 70° C. for 10 min. To remove template DNA after treated with DNaseI, DNA-free DNA Removal kit (ThermoFisher) was used according to manufacturer's direction. The resulting materials were used as templates to generate cDNA with 100 U MMLV reverse transcriptase (Promega), 0.45 μM gene specific primer, and 20 U RNase inhibitor (Promega). The amount of cDNA synthesized for 1 h at 42° C. was quantified by real-time PCR (qRT-PCR). The copy number of specific transcripts was calculated to the standard curve generated with known gene copy concentrations. The IC50 is the concentration at which the curve passes through the 50% inhibition level. Standard deviation was calculated from 3 independent experiments.
# The compounds were initially tested at 0.1 μM and 1 μM using as a target the promoter of the livJ gene that encodes a transporter of branch-chain amino acids (Table 4).
# Salmonella strain 14028s = experiment: Minimum inhibitory concentration in EG minimal media; assay type: cell-based, Salmonella Typhimurium; conditions: 18 h; for Growth in EG at concentration tested 1 μg/ml / Growth in EG at concentration tested 2 μg/ml / Growth in EG at concentration tested 4 μg/ml / Growth in EG at concentration tested 8 μg/ml / Growth in EG at concentration tested 16 μg/ml / Growth in EG at concentration tested 32 μg/ml: EG minimal media, 37° C.; for MIC: Salmonella, 14028S
# Protocol: DksA controls transcription of metabolic and virulence genes, allowing bacteria to both grow in minimum media and cause disease. Inhibition of bacterial growth in EG minimum media was used as an easy and reliable proxy of the DksA-dependent regulation of metabolism.
# In a non-limiting example, wild-type Salmonella strain 14028s was grown overnight (18.5 h), and then diluted in EG minimal media to a density of about 10^5 CFU/mL. […] Each test tube was incubated at 37° C. with shaking for 18 h and bacterial growth was evaluated. The MIC value was determined as the lowest concentration of compound that inhibited growth.
# Compound solubility = assay type: physicochemical; conditions: for Compound Solubility, 1 μM: solvent at 1 μM; for Compound Solubility, 10 μM: solvent at 10 μM; for Compound Solubility, 100 μM: solvent at 100 μM; for Compound Solubility, 1 mM: solvent at 1 mM; for Compound Solubility, 10 mM: solvent at 10 mM; for Compound Solubility, 16 mg/ml: solvent at 16 mg/ml
# DksA, sequence (P0A1G5 whole entry): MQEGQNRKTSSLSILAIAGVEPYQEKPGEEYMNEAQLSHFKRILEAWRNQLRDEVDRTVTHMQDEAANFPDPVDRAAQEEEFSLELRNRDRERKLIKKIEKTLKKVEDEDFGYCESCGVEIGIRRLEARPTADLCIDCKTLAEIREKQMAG
SMILES,"In vitro transcription assay result, 0.1 μM (DksA)","In vitro transcription assay result, 1 μM (DksA)",IVT (DksA),Growth in EG at concentration tested 1 μg/ml (Salmonella strain 14028s),Growth in EG at concentration tested 2 μg/ml (Salmonella strain 14028s),Growth in EG at concentration tested 4 μg/ml (Salmonella strain 14028s),Growth in EG at concentration tested 8 μg/ml (Salmonella strain 14028s),Growth in EG at concentration tested 16 μg/ml (Salmonella strain 14028s),Growth in EG at concentration tested 32 μg/ml (Salmonella strain 14028s),"Compound Solubility, 1 μM (Compound solubility)","Compound Solubility, 10 μM (Compound solubility)","Compound Solubility, 100 μM (Compound solubility)","Compound Solubility, 1 mM (Compound solubility)","Compound Solubility, 10 mM (Compound solubility)","Compound Solubility, 16 mg/ml (Compound solubility)",MIC (Salmonella strain 14028s)
"O=C(Nc1ccc(C(F)(F)F)cc1)c1nc[nH]n1 [Compound 11, N-(4-(trifluoromethyl)phenyl)-1H-1,2,4-triazole-3-carboxamide]",good repression,good repression,0.1 µM,+,+,+,+,+,+,water,water,water,DMSO,DMSO,DMSO,–
"COc1ccc(CNC(=O)c2nc[nH]n2)cc1C(F)(F)F [Compound 10, N-(4-methoxy-3-(trifluoromethyl)benzyl)-1H-1,2,4-triazole-3-carboxamide]",no change,no induction,1 µM,+,+,+,+,+,+,water,water,water,water,water,DMSO,–
"O=C(Nc1cccc(OC(F)(F)F)c1)c1nc[nH]n1 [Compound 5, N-(3-(trifluoromethoxy)phenyl)-1H-1,2,4-triazole-3-carboxamide]",no induction,no induction,0.1 µM,+,+,+,+,+,+,water,water,water,water,DMSO,DMSO,–
"CC(C)(C)c1ccc(NC(=O)c2nc[nH]n2)cc1 [Compound 13, N-(4-(tert-butyl)phenyl)-1H-1,2,4-triazole-3-carboxamide]",no induction,no induction,0.1 µM,+,+,+,+,+,+,water,water,water,water,DMSO,DMSO,–
"COc1ccc([C@@H](C)NC(=O)c2nc[nH]n2)cc1 [Compound 22, (R)-N-(1-(4-methoxyphenyl)ethyl)-1H-1,2,4-triazole-3-carboxamide]",no induction,no induction,0.1 µM,+,+,+,+,+,+,water,water,water,water,water,DMSO,–
"C[C@@H](NC(=O)c1nc[nH]n1)c1ccccc1 [Compound 17, (R)-N-(1-phenylethyl)-1H-1,2,4-triazole-3-carboxamide]",no induction,no induction,0.1 µM,+,+,+,+,+,+,water,water,water,water,water,DMSO,–
"O=C(NCc1ccc(OC(F)(F)F)cc1)c1nc[nH]n1 [Compound 8, N-(4-(trifluoromethoxy)benzyl)-1H-1,2,4-triazole-3-carboxamide]",no induction,no induction,0.1 µM,+,+,+,+,+,+,water,water,water,water,DMSO,DMSO,–
"COc1cccc(CNC(=O)c2nc[nH]n2)c1OC [Compound 3, N-(2,3-dimethoxybenzyl)-1H-1,2,4-triazole-3-carboxamide]",no induction,no induction,0.1 µM,+,+,+,+,–,–,water,water,water,water,water,DMSO,32 µg/mL
"COc1cccc(CNC(=O)c2nc[nH]n2)c1 [Compound 7, N-(3-methoxybenzyl)-1H-1,2,4-triazole-3-carboxamide]",no change,no change,–,+,+,+,–,–,–,water,water,water,water,water,DMSO,8 µg/mL
"COc1ccc(CNC(=O)c2nc[nH]n2)cc1 [Compound 4, N-(4-methoxybenzyl)-1H-1,2,4-triazole-3-carboxamide]",no change,no change,–,+,+,+,–,–,–,water,water,water,water,water,DMSO,8 µg/mL
"COc1ccc(CNC(=O)c2nc[nH]n2)cc1OC [Compound 2, N-(3,4-dimethoxybenzyl)-1H-1,2,4-triazole-3-carboxamide]",no change,no change,–,+,+,+,+,+,+,water,water,water,water,water,DMSO,–
